From patent publication US20240246946A1, “MODULATORS OF TREX1” (Constellation Pharmaceuticals, Inc., priority 2021, published 2024)

Tests used:
full length human TREX1 = molecular target: T1, full length human TREX1 (Homo sapiens, UniProt Q9NSU2); experiment: TREX1 Kinetics Assays (TR-FRET association and dissociation, global fit with Kintek Explorer); format: binding; conditions: for Kd / residence time: hTREX1, TR-FRET kinetics; for koff / kon: hTREX1, TR-FRET, 25° C., global fit
T1 construct: N-terminally His-Tev tagged full length human TREX1; made in house; host or cells: E. coli
T1 sequence (Q9NSU2 1-314): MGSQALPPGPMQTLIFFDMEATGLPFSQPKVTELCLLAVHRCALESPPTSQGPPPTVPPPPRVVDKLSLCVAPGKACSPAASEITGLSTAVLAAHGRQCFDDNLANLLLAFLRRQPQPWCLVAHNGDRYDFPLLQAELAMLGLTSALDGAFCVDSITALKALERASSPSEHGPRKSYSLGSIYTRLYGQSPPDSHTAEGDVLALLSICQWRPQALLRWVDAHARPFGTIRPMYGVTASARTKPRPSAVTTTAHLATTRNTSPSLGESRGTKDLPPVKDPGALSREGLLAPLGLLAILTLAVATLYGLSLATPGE
Method: Compound binding kinetics were assessed using a pair of TR-FRET assays which measure the proportion of protein bound to a biotinylated TREX1 inhibitor (“probe”).
N-terminally His-Tev tagged full length human TREX1 (expressed in E. coli and purified in house), complexed with Eu-W1024-anti-6×His (“Eu”; PerkinElmer) in reaction buffer (50 mM Tris, 150 mM NaCl, 2 mM DTT, 0.1 mg/mL BSA, 0.01% (w/v) Tween-20, 5 mM MgCl2, pH 7.4) was combined with an equal volume of test compound in reaction buffer and incubated at 25° C. Concentrations at this stage were 1 nM TREX1/Eu complex, and four concentrations of compound (diluted from 10 mM stocks in 100% DMSO). At defined time points, 18 μL of this mixture was withdrawn and combined with 2 μL probe to a final concentration of 1 μM probe. After incubating for 30 seconds, 18 μL was withdrawn and combined with 2 μL streptavidin-allophycocyanin (“SA-APC”; PerkinElmer) to a final concentration of 1.5 μM SA-APC. Fifteen μL of this mixture was then immediately transferred to a 384-well Black ProxiPlate Plus (PerkinElmer) and read in an EnVision plate reader (PerkinElmer) measuring fluorescence at 615 nm and 665 nm following excitation w/337 nm laser light. Final concentrations were 0.8 nM TREX1/Eu complex, 0.9 μM probe, and 1.5 μM SA-APC.
N-terminally His-Tev tagged full length human TREX1 (expressed in E. coli and purified in house), complexed with Eu-W1024-anti-6×His (“Eu”; PerkinElmer) in reaction buffer (50 mM Tris, 150 mM NaCl, 2 mM DTT, 0.1 mg/mL BSA, 0.01% (w/v) Tween-20, 5 mM MgCl2, pH 7.4) was combined with an equal volume of test compound in reaction buffer. Concentrations at this stage were 100 nM TREX1/Eu complex and 100 nM test compound (diluted from 10 mM stocks in 100% DMSO). Following an equilibration period of at least an hour at 25° C., this mixture was diluted 100-fold into reaction buffer containing 1 μM probe, and incubated at 25° C. At defined time points, 36 μL of the reaction mixture was withdrawn and combined with 4 μL streptavidin-allophycocyanin (“SA-APC”; PerkinElmer) to a final concentration of 1.5 μM SA-APC. Fifteen μL of this mixture was then immediately transferred to duplicate wells of a 384-well Black ProxiPlate Plus (PerkinElmer) and read in an EnVision plate reader (PerkinElmer) measuring fluorescence at 615 nm and 665 nm following excitation w/337 nm laser light.
The TR-FRET signal, a ratio of 665 nm/615 nm emitted light, was converted to fraction enzyme bound to test compound by normalizing to low signal (no enzyme or test compound) and high signal (no test compound) controls. Data from both association and dissociation experiments were fitted globally using Kintek Explorer software, which computes the rate constants directly.

hTREX1 = molecular target: T2, hTREX1 (Homo sapiens, UniProt Q9NSU2); experiment: hTREX1 HCT116 Cell Assay (HCT116 dual cells, Lucia luciferase reporter of Type I interferon induction); format: cell-based; conditions: TREX1i 4 h before pBR322/BstNI transfection, read after 48 h
T2 construct: host or cells: HCT116 dual cells
T2 sequence (Q9NSU2 1-314): T1 sequence (Q9NSU2 1-314)
Summary of the method: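 HCT116 dual cells carrying an ISRE-type STAT1/STAT2-driven secreted Lucia luciferase reporter were pretreated with TREX1 inhibitor for 4 h (≤0.1% DMSO), then transfected with pBR322/BstNI DNA (100 ng/well, Lipofectamine LTX). Luciferase in medium read after 48 h at 37 °C.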

Kd (full length human TREX1) [nM]	residence time (full length human TREX1) [min]	koff (full length human TREX1) [s⁻¹]	kon (full length human TREX1) [M⁻¹ s⁻¹]	IC50 (hTREX1) [nM]	Compound
0.245	310	5.38e-05	220000	< 10	CC(c1nc(C(=O)Nc2cnoc2)c(O)c(=O)n1C)C(c1cnn(C)c1)c1cc(F)ccc1C#N (single isomer, unassigned) [Example 14 D1E2]
	505	3.3e-05		10 to 100	CCn1c(C(C)C(c2cnn(C)c2)c2ccccc2C#N)nc(C(=O)Nc2cnoc2)c(O)c1=O (single isomer, unassigned) [Example 149 D1E2]
	543	3.07e-05		< 10	Cc1ncc(C(c2ccccc2Cl)C(C)c2nc(C(=O)Nc3cnoc3)c(O)c(=O)n2C)nc1C (single isomer, unassigned) [Example 125 D1E2]
0.255	483	3.45e-05	135000	< 10	Cc1cncc(C(c2ccccc2C#N)C(C)c2nc(C(=O)Nc3cnoc3)c(O)c(=O)n2C)n1 (single isomer, unassigned) [Example 53 D1E2]
0.405	269	6.2e-05	153000	10 to 100	CC(c1nc(C(=O)Nc2cnoc2)c(O)c(=O)n1C)C(c1cnn(C)c1)c1cc(Cl)ccc1C#N (single isomer, unassigned) [Example 26 D1E2]
	1450	1.15e-05		< 10	Cc1nc(C)c(C(c2ccccc2C#N)C(C)c2nc(C(=O)Nc3cnoc3)c(O)c(=O)n2C)nc1C (single isomer, unassigned) [Example 122 D1E1]
	1820	9.17e-06		< 10	CC(c1nc(C(=O)Nc2cnoc2)c(O)c(=O)n1C)C(c1ccccc1C#N)c1cn(C)nc1F (single isomer, unassigned) [Example 91 D1E1]
0.28	353	4.72e-05	168000	< 10	CCn1cc(C(c2cc(F)ccc2C#N)C(C)c2nc(C(=O)Nc3cnoc3)c(O)c(=O)n2C)cn1 (single isomer, unassigned) [Example 17 D1E2]
0.614	256	6.5e-05	106000	< 10	CC(c1nc(C(=O)Nc2cnoc2)c(O)c(=O)n1C)C(c1cnn(CC(F)(F)F)c1)c1ccccc1C#N (single isomer, unassigned) [Example 22 D1E1]
0.529	290	5.73e-05	108000	10 to 100	CC(c1nc(C(=O)Nc2cnoc2)c(O)c(=O)n1C)C(c1cnn(CC2CC2)c1)c1ccccc1C#N (single isomer, unassigned) [Example 23 D1E2]
	515	3.23e-05		< 10	C[C@H](c1nc(C(=O)Nc2cnoc2)c(O)c(=O)n1C)[C@@H](c1cc(F)ccc1C#N)c1cn(C)nc1C#N [Example 59 D1E2]
0.338	215	7.77e-05	230000	10 to 100	CC(c1nc(C(=O)Nc2cnoc2)c(O)c(=O)n1C)C(c1cnn(C)c1)c1ccccc1Cl (single isomer, unassigned) [Example 77 D1E1]
0.351	290	5.73e-05	163000	< 10	CC(c1nc(C(=O)Nc2cnoc2)c(O)c(=O)n1C)C(c1cnn(C(F)F)c1)c1ccccc1C#N (single isomer, unassigned) [Example 38 D1E1]
0.245	461	3.62e-05	147000	< 10	CCn1cc(C(c2ccc(F)cc2C#N)C(C)c2nc(C(=O)Nc3cnoc3)c(O)c(=O)n2C)cn1 (single isomer, unassigned) [Example 16 D1E1]
	714	2.33e-05		< 10	Cc1ncc(C(c2ccccc2C#N)C(C)c2nc(C(=O)Nc3cnoc3)c(O)c(=O)n2C)nc1C (single isomer, unassigned) [Example 81 D1E2]
	431	3.87e-05		< 10	Cc1nn(C)cc1C(c1cc(F)ccc1C#N)C(C)c1nc(C(=O)Nc2cnoc2)c(O)c(=O)n1C (single isomer, unassigned) [Example 57 D1E2]
	461	3.62e-05		10 to 100	Cc1cc(C(c2cc(F)ccc2C#N)C(C)c2nc(C(=O)Nc3cnoc3)c(O)c(=O)n2C)n(C)n1 (single isomer, unassigned) [Example 111 D1E2]
	515	3.23e-05		< 10	Cc1cnc(C(c2cc(F)ccc2C#N)C(C)c2nc(C(=O)Nc3cnoc3)c(O)c(=O)n2C)cn1 (single isomer, unassigned) [Example 115 D1E2]
	741	2.25e-05		10 to 100	Cc1ncc(C(c2cc(F)ccc2C#N)C(C)c2nc(C(=O)Nc3cnoc3)c(O)c(=O)n2C)nc1C (single isomer, unassigned) [Example 124 D1E2]
	662	2.52e-05		< 10	CC(c1nc(C(=O)Nc2cnoc2)c(O)c(=O)n1C)C(c1cnn(C(C)C)c1)c1ccccc1C#N (single isomer, unassigned) [Example 105 D1E2]
0.036	613	2.72e-05	757000	< 10	CC(c1nc(C(=O)Nc2cnoc2)c(O)c(=O)n1C)C(c1ccccc1C#N)c1cn(C)nc1C#N (single isomer, unassigned) [Example 10 D1E1]
0.231	368	4.53e-05	197000	< 10	CC(c1nc(C(=O)Nc2cnoc2)c(O)c(=O)n1C)C(c1cnn(C)c1)c1ccccc1C#N (single isomer, unassigned) [Example 2 D1E1]
	413	4.03e-05		< 10	Cc1nn(C)c(C)c1C(c1ccccc1C#N)C(C)c1nc(C(=O)Nc2cnoc2)c(O)c(=O)n1C (single isomer, unassigned) [Example 78 D1E1]
0.209	370	4.5e-05	215000	< 10	CCn1cc(C(c2ccccc2C#N)C(C)c2nc(C(=O)Nc3cnoc3)c(O)c(=O)n2C)cn1 (single isomer, unassigned) [Example 13 D1E1]
